Results as given in publication PMC11345829, “Discovery of Potent Isoquinolinequinone N-Oxides to Overcome Cancer Multidrug Resistance” (Journal of Medicinal Chemistry, 2024).

Tests used:
NCI-H460 = experiment: NCI60 five-dose GI50 (NCI data); type: cell-based; conditions: Homo sapiens, NCI data provided for comparison, read-out: NSCLC NCI-H460 GI50 (NCI)
Description: (§1) The concentration−response curve generated enables the determination of three criteria, GI50 (drug concentration at which 50% of cell growth is inhibited), total growth inhibition (TGI) and LC50 (drug concentration at which 50% of tumor cells are killed) which can be used to compare effectiveness against any compound tested in the screen since its inception.
(§2) S2.1 NCI Screening Assay Experimental details
(§3) NCI Screening Assay Experimental: Cancer cell growth assays (NCI60 screening) 5,6 One-dose study: Tested compounds were initially solubilised in DMSO, diluted into RPMI 1640 and 5% fetal bovine serum/L-glutamine, and added to 96-well plates containing cell lines previously cultured for 24 h. After 48 h incubation, the media were removed, and the cells were fixed and stained with sulforhodamine B to determine overall percent growth/ total protein content. Unbound dye was removed with five washes of 1% acetic acid, and the plates were allowed to air dry. The dye was then resolubilised in Tris buffer, and the colorimetric absorbance was measured (515 nm). Growth inhibition was measured relative to the response generated from proliferating cells cultured under identical conditions for 48 h. Data from one-dose experiments pertains to the percentage growth at […]
(§4) Five-dose study: Serial 5 × 10-fold dilution from an initial DMSO stock solution was performed, prior to incubation at each individual concentration (10 nM, 100 nM, 1 μM, 10 μM and 100 μM). Using seven absorbance measurements (time zero (Tz), control growth (C), and test growth in the presence of drug at the five concentration levels (Ti)), the percentage growth was calculated at each of the drug concentrations levels. Percentage growth inhibition was calculated as: [(Ti − Tz)/(C − Tz)] × 100 for concentrations for which Ti ≥ Tz, [(Ti − Tz)/Tz] × 100 for concentrations for which Ti < Tz. Three dose response parameters were calculated for each experimental agent. […]
(§5) was calculated from [(Ti − Tz)/(C − Tz)] × 100 = 50, which is the drug concentration resulting in a 50% reduction in the net protein increase (as measured by sulforhodamine B staining) in control cells during the drug incubation. The drug concentration resulting in total growth inhibition (TGI) was calculated from Ti = Tz. The LC50 (concentration of drug resulting in a 50% reduction in the measured protein at the end of the drug treatment as compared to that at the beginning) indicating a net loss of cells following treatment was calculated from [(Ti − Tz)/Tz] × 100 = −50. Values were calculated for each of these three parameters if the level of activity was reached; however, if the effect was not reached or was exceeded, the value for that parameter was expressed as greater or less than the maximum or minimum concentration tested.

DLD1-TxR = experiment: SRB cell growth inhibition assay; type: cell-based, human; conditions: for selectivity ratio colorectal cancer: GI50 sensitive DLD1 / GI50 MDR DLD1-TxR; for GI50: Homo sapiens, 48 h, colorectal cancer MDR, mean ± SEM; for GI50 / GI50 concentration range against MDR DLD1-TxR: SRB assay; for GI50 concentration range against MDR DLD1-TxR: in words
Procedure: Two distinct pairs of counterpart drug-sensitive and MDR human tumor cell lines were used, namely the non-small lung cancer (NSCLC) NCI-H460 (same cell line as in the NCI screen) and its MDR counterpart cell line NCI-H460/R and the colorectal cancer DLD1 and its MDR counterpart cell line DLD1-TxR (Table 3). The screening was performed using the SRB assay, and the GI50 for each compound was determined by interpolation on the attained concentration−response curves and compared with NCI60 screening data (SI, Figures S62−S63; Table S21).
Two pairs of drug-sensitive and multidrug-resistant (MDR) cell lines from human nonsmall cell lung cancer (NSCLC), NCI-H460 and NCI-H460/R, and colorectal cancer, DLD1 and DLD1-TxR, kindly provided by Dr M. Pešić (Belgrade, Serbia), were used to evaluate the growth inhibition potential of the compounds 1, 2, 3, 4, 5, 20, 23, 24, an 25.[76],[77] Additionally, growth inhibition assays were performed with compound 25 on two other NSCLC cell lines, A549 and NCI-H322, obtained from the American Type Culture Collection (ATCC) and the European Collection of Authenticated Cell Cultures, respectively. The A549 cell line was maintained in Dulbecco’s Modified Eagle Medium (DMEM) supplemented with 4.5 g/L Glucose with UltraGlutamine with sodium pyruvate (Lonza, Basel Stücki, Switzerland), enriched with 10% fetal bovine serum (FBS; Biowest, Nuaillé, France). The lung fibroblast MRC-5 cell line and the remaining NSCLC and colorectal cancer cell lines were cultured in Roswell Park Memorial Institute (RPMI) 1640 (with stable glutamine and 25 mM HEPES) medium (Biowest), supplemented with 10% fetal bovine serum. […] For the sulforhodamine B (SRB) and 3D cell culture assays, the media were supplemented with 5% FBS. The remaining experiments were performed with medium supplemented with 10% FBS.
Cells were seeded at a previously determined optimal cell concentration (5.0 × 10^4 cells/mL for NSCLC cells and the nontumorigenic MRC-5 cell line and 1.0 × 10^5 cells/mL for colorectal cancer cells) and incubated at 37 °C for 24 h. […] The SRB assay was performed as previously described.[78],[79] Briefly, after fixing cells with 10% (w/v) ice-cold trichloroacetic acid (Merck Life Science), the proteins were stained with 0.4% of SRB (Merck Life Science) in acetic acid (Merck Life Science). Following washing steps in acetic acid, the bound dye was solubilized with 10 mM Tris base solution (Merck Life Science). Absorbance was measured at 510 nm in a multiplate reader (Synergy Mx, Biotek Instruments Inc., Winooski, Vermont, USA) using the Gen5 software (Biotek Instruments Inc.).

[1] = system: NCI60 tumor cell line panel; experiment: NCI60 one-dose screen (10 μM), mean growth; type: cell-based, human; conditions: 48 h, one dose 10 μM, mean cell growth of 60 tumor cell lines; for activity at 10 µM: Homo sapiens
Procedure: as §2
as §3, with “h.” for “h. Data from one-dose experiments pertains to the percentage growth at”

OVCAR-8 = experiment: NCI60 five-dose GI50; type: cell-based; conditions: Homo sapiens, ovarian
Description: as §1, §2
as §3, with “nm).” for “nm). Growth inhibition was measured relative to the response generated from proliferating cells cultured under identical conditions for 48 h. Data from one-dose experiments pertains to the percentage growth at”
as §4, §5

| GI50 (DLD1-TxR) [nM] | GI50 concentration range against MDR DLD1-TxR (DLD1-TxR) | SMILES | GI50 (NCI-H460) [nM] | selectivity ratio colorectal cancer (DLD1-TxR) | activity at 10 µM [1] [%] | mean growth (%, 10 μM) [1] [%] | GI50 (OVCAR-8) [nM] |
| --- | --- | --- | --- | --- | --- | --- | --- |
| 880 ± 90 | nanomolar range | COC(=O)c1c2c(c(C)[n+]([O-])c1C)C(=O)C=C(NCc1ccccc1)C2=O [Compound 2] | 2740 | 2.7 |  |  |  |
| 720 ± 30 | nanomolar range | COC(=O)c1c2c(c[n+]([O-])c1C)C(=O)C(NCc1ccccc1)=CC2=O [Compound 24] | 383 | 1.9 | -35.1 | -35.1 | 320 |
| 670 ± 50 | nanomolar range | COC(=O)c1c2c(c(C)[n+]([O-])c1C)C(=O)C=C(NCc1ccc(F)cc1)C2=O [Compound 5] | 525 | 1.8 | -37 | -37 | 406 |
| 14900 ± 680 |  | COC(=O)c1c2c(c[n+]([O-])c1C)C(=O)C=CC2=O [Compound 23] | 12800 | 2 | 44.5 |  | 2930 |
| 3130 ± 100 |  | COC(=O)c1c2c(c(C)[n+]([O-])c1C)C(=O)C(NCc1ccc(F)cc1)=CC2=O [Compound 4] | 792 | 1.9 | 18 |  | 1590 |
| 420 ± 30 | nanomolar range | COC(=O)c1c2c(c[n+]([O-])c1C)C(=O)C=C(NCc1ccccc1)C2=O [Compound 25] | 210 | 1.5 |  |  | 240 |
| 5930 ± 550 |  | COC(=O)c1c2c(c(C)[n+]([O-])c1C)C(=O)C(NCc1ccc(O)cc1)=CC2=O [Compound 20] | 1580 | 1.6 | -21 | -21 | 1080 |
